According to the NIST ThermoML archive (doi:10.1021/je100476h):
± gives the expanded uncertainty stated by the source.

Experiment: mn = molality of the nth substance listed, in mol/kg
Conditions: 101 kPa, Liquid

O [water] + CC(=O)[O-].[Na+]
Conditions | mass density [kg/m3]
308.15 K, m2 = 0 | 994.063 ± 0.27

NCCCC(=O)O [4-aminobutanoic acid] + O
mass density [kg/m3]
Conditions | m1 = 0.04607 | m1 = 0.09549 | m1 = 0.1155 | m1 = 0.1652 | m1 = 0.1882 | m1 = 0.2277
288.15 K | 1000.54 ± 0.25 | 1002.05 ± 0.25 | 1002.65 ± 0.25 | 1004.13 ± 0.26 | 1004.83 ± 0.26 | 1005.99 ± 0.26
298.15 K | 998.428 ± 0.25 | 999.894 ± 0.24 | 1000.48 ± 0.25 | 1001.93 ± 0.25 | 1002.61 ± 0.25 | 1003.73 ± 0.26
308.15 K | 995.406 ± 0.26 | 996.864 ± 0.25 | 997.447 ± 0.25 | 998.889 ± 0.25 | 999.542 ± 0.25 | 1000.66 ± 0.25
318.15 K | 991.616 ± 0.27 | 993.071 ± 0.27 | 993.654 ± 0.26 | 995.086 ± 0.26 | 995.747 ± 0.26 | 996.868 ± 0.26

CC(=O)[O-].CC(=O)[O-].[Mg+2] [magnesium acetate] + O
mass density [kg/m3]
Conditions | 288.15 K | 298.15 K | 308.15 K | 318.15 K
m1 = 0.1 | 1007.01 ± 0.28 | 1004.9 ± 0.27 | 1001.84 ± 0.26 | 998.062 ± 0.26
m1 = 0.25 | 1018.2 ± 0.31 | 1016.05 ± 0.3 | 1012.89 ± 0.29 | 1009.15 ± 0.28
m1 = 0.5 | 1035.44 ± 0.36 | 1033.15 ± 0.35 | 1030.05 ± 0.34 | 1026.24 ± 0.33
m1 = 1 | 1064.68 ± 0.46 | 1061.74 ± 0.45 | 1059.65 ± 0.44 | 1055.19 ± 0.43

CC(=O)[O-].[Na+] [sodium ethanoate] + O
mass density [kg/m3]
Conditions | 288.15 K | 298.15 K | 308.15 K | 318.15 K
m1 = 0.1 | 1003.46 ± 0.26 | 1001.31 ± 0.25 | 998.243 ± 0.25 | 994.384 ± 0.26
m1 = 0.25 | 1009.6 ± 0.28 | 1007.39 ± 0.27 | 1004.27 ± 0.26 | 1000.35 ± 0.25
m1 = 0.5 | 1019.38 ± 0.31 | 1017.07 ± 0.3 | 1013.89 ± 0.29 | 1009.85 ± 0.28
m1 = 1 | 1037.22 ± 0.37 | 1034.76 ± 0.36 | 1031.54 ± 0.35 | 1027.23 ± 0.34

NCCCCCC(=O)O [6-aminohexanoic acid] + O
mass density [kg/m3]
Conditions | m1 = 0.05814 | m1 = 0.09073 | m1 = 0.1798 | m1 = 0.1945 | m1 = 0.267 | m1 = 0.3522
288.15 K | 1000.76 ± 0.25 | 1001.66 ± 0.25 | 1004.09 ± 0.26 | 1004.48 ± 0.26 | 1006.41 ± 0.27 | 1008.64 ± 0.27
298.15 K | 998.622 ± 0.25 | 999.493 ± 0.25 | 1001.84 ± 0.25 | 1002.22 ± 0.25 | 1004.08 ± 0.26 | 1006.23 ± 0.27
308.15 K | 995.592 ± 0.26 | 996.454 ± 0.26 | 998.775 ± 0.25 | 999.147 ± 0.25 | 1000.99 ± 0.25 | 1003.12 ± 0.26
318.15 K | 991.793 ± 0.27 | 992.649 ± 0.27 | 994.956 ± 0.26 | 995.328 ± 0.26 | 997.158 ± 0.26 | 999.27 ± 0.25

NCC(=O)O [2-aminoacetic acid] + O
mass density [kg/m3]
Conditions | m1 = 0.1429 | m1 = 0.2709 | m1 = 0.3812 | m1 = 0.4102 | m1 = 0.4801 | m1 = 0.5732
288.15 K | 1003.76 ± 0.26 | 1007.85 ± 0.27 | 1011.33 ± 0.28 | 1012.23 ± 0.28 | 1014.4 ± 0.29 | 1017.27 ± 0.3
298.15 K | 1001.56 ± 0.25 | 1005.54 ± 0.26 | 1008.93 ± 0.27 | 1009.8 ± 0.28 | 1011.92 ± 0.28 | 1014.71 ± 0.29
308.15 K | 998.477 ± 0.25 | 1002.4 ± 0.25 | 1005.73 ± 0.26 | 1006.59 ± 0.27 | 1008.66 ± 0.27 | 1011.41 ± 0.28
318.15 K | 994.636 ± 0.26 | 998.503 ± 0.25 | 1001.79 ± 0.25 | 1002.63 ± 0.25 | 1004.67 ± 0.26 | 1007.37 ± 0.27
